The OligoGym collection
HELM strings list units from the 5' end as sugar, base in round brackets, then linkage (d deoxyribose, r ribose, m 2'-O-methyl, p phosphodiester). Strings are as the collection lists them; they lack the last nucleoside at the 3' end of the tested compound. [moe] = 2'-O-(2-methoxyethyl) (MOE); [sp] = phosphorothioate linkage; [m5C] = 5-methylcytosine

Molecular target: ATXN2
Assay: mouse, dose not given
Details: ASO

Substance “RNA1{[moe](A)[sp].[moe](A)p.[moe](T)p.[moe](A)p.[moe](G)p.d(G)[sp].d(G)[sp].d(T)[sp].d(T)[sp].d(T)[sp].d(T)[sp].d(G)[sp].d(T)[sp].d(T)[sp].d([m5C])[sp].[moe](A)p.[moe](T)p.[moe](G)[sp].[moe]([m5C])}$$$$ (last 3' nucleoside missing)” has a 3 h FOB score of 3.75 score 0-7.
“RNA1{[moe]([m5C])[sp].[moe](T)p.[moe](T)p.[moe]([m5C])p.[moe](T)p.d(G)[sp].d([m5C])[sp].d(T)[sp].d(A)[sp].d(A)[sp].d([m5C])[sp].d(T)[sp].d(G)[sp].d(G)[sp].d(T)[sp].[moe](T)p.[moe](T)p.[moe](G)[sp].[moe]([m5C])}$$$$ (last 3' nucleoside missing)” showed a 3 h FOB score of 2.5 score 0-7.
“RNA1{[moe](G)[sp].[moe](T)p.[moe](T)p.[moe]([m5C])p.[moe](A)p.d(T)[sp].d(G)[sp].d(A)[sp].d([m5C])[sp].d(T)[sp].d(T)[sp].d(T)[sp].d([m5C])[sp].d(A)[sp].d(A)[sp].[moe](G)p.[moe](G)p.[moe](G)[sp].[moe](T)}$$$$ (last 3' nucleoside missing)” was tested, and the 3 h FOB score was 2 score 0-7.
In the case of “RNA1{[moe](G)[sp].[moe](T)p.[moe](G)p.[moe](G)p.[moe]([m5C])p.d(T)[sp].d(T)[sp].d(T)[sp].d(A)[sp].d(A)[sp].d(A)[sp].d(A)[sp].d(A)[sp].d([m5C])[sp].d(T)[sp].[moe](A)p.[moe](G)p.[moe](G)[sp].[moe](T)}$$$$ (last 3' nucleoside missing)”, the 3 h FOB score was 0 score 0-7.
With “RNA1{[moe](T)[sp].[moe](G)p.[moe]([m5C])p.[moe](T)p.[moe](A)p.d(A)[sp].d([m5C])[sp].d(T)[sp].d(G)[sp].d(G)[sp].d(T)[sp].d(T)[sp].d(T)[sp].d(G)[sp].d([m5C])[sp].[moe]([m5C])p.[moe]([m5C])p.[moe](T)[sp].[moe](T)}$$$$ (last 3' nucleoside missing)” the 3 h FOB score was 7 score 0-7.
Work on “RNA1{[moe](T)[sp].[moe](A)p.[moe]([m5C])p.[moe](T)p.[moe](G)[sp].d(T)[sp].d(T)[sp].d(T)[sp].d([m5C])[sp].d(G)[sp].d(A)[sp].d([m5C])[sp].d([m5C])[sp].[moe](T)p.[moe]([m5C])p.[moe](T)[sp].[moe](G)}$$$$ (last 3' nucleoside missing)” yielded a 3 h FOB score of 4.75 score 0-7.
“RNA1{[moe](G)[sp].[moe]([m5C])p.[moe](T)p.[moe](G)p.[moe](T)p.d(A)[sp].d(T)[sp].d(T)[sp].d(T)[sp].d(T)[sp].d(T)[sp].d(A)[sp].d([m5C])[sp].d(T)[sp].d([m5C])[sp].[moe](A)p.[moe]([m5C])p.[moe]([m5C])[sp].[moe](T)}$$$$ (last 3' nucleoside missing)” was tested, and the 3 h FOB score was 0 score 0-7.
